Columns and labels:
[1] = tested on: Wistar rats; assay: Chronic Mild Stress Model (Chronic); type: in vivo, rat
Description: In the chronic mild stress (CMS) model rats subjected to a variety of mild stressors for a prolonged period of time show, among other behavioral, biochemical and physiological impairments, a substantial decrease in their responsiveness to rewarding stimuli. This deficit is usually monitored by a decrease in the consumption of the 1% sucrose solution, but can also be seen in other tests, such as place preference conditioning or intracranial self-stimulation. Since the subsensitivity to reward appears to reflect anhedonia (inability to experience pleasure), which is a core symptom of major depressive disorders, the CMS procedure may serve as a suitable research tool in studies into the mechanisms of antidepressant action.
Male Wistar rats were brought into the laboratory two months before the start of the experiment. Except as described below, the animals were singly housed with food and water freely available, and were maintained on a 12-h light/dark and in a constant temperature (22±2° C.) and humidity (50±5%) conditions.
The animals were first trained to consume a 1% sucrose solution; training consisted of eight 1 h baseline tests in which sucrose was presented, in the home cage, following 14 h food and water deprivation; the sucrose intake was measured by weighing pre-weighed bottles containing the sucrose solution, at the end of the test. Subsequently, sucrose consumption was monitored, under similar conditions, at weekly intervals throughout the whole experiment.
On the basis of their sucrose intakes in the final baseline test, the animals were divided into two matched groups. One group of animals was subjected to the chronic mild stress procedure for a period of 7 consecutive weeks. […]
All results obtained in this study were analyzed by multiple analyses of variance with three between-subjects factors (stress/control, drug treatments and successive sucrose tests). […]

[2] = tested on: Sprague Dawley rats; assay: Forced Swim Test (Acute); type: in vivo, rat
Protocol: The Forced Swim test (FST) is a commonly used procedure to screen compounds for possible antidepressant properties. This test is also known as the behavioral despair test. Rodents placed in […] tanks filled with water present a wide variety of escape or immobility behaviors. Antidepressant drugs from different classes markedly increase escape behaviors and/or decrease latency or duration of immobility.
Venlafaxine and desipramine were dissolved in water. All drugs and their vehicles were administered orally (p.o.) by gavage in a volume of 5 mL/kg.
Male Sprague Dawley rats (140 to 160 g) from Charles River Laboratories Wilmington, Mass. were used. The animals went through a five-day quarantine period before being subjected to the experimental procedure.
Animals were housed in groups of four in plastic cages at an ambient temperature of 21° C. to 23° C. with an automated 12 hour light/dark cycle and access to water and commercial rodent food ad libitum. Animals were not handled more than for the routine bedding change prior to pre-test swim session.
Each experiment consisted of seven treatment groups with n=4 animals per group. A total of 28 animals per experiment were used. Two consecutive experiments (1 and 2, 3 and 4, and 5 and 6) were exact replicas of each other. […] One treatment group of n=4 animals in each experiment was a vehicle treated group. […] In experiments 5 and 6 the effects of venlafaxine and maprotyline at 12 mg/kg, 30 mg/kg, and 60 mg/kg were tested.
The basic apparatus consisted of a cylinder (46 cm tall×˜20 cm diameter) filled with water to 30 cm deep, at a temperature of 25±1° C. The automated version of the FST was used to perform the experiments. Plumbing for automatic filling and emptying water connected the four cylinders. Cylinders were placed in the dividing chambers 25 cm wide to separate animals visually. Each 5-minute experimental session was videotaped and analyzed in real time by computer software (Clever Systems, Inc.) for four animals at a time. The immobility, swimming, climbing and escape times were recorded by the software. The four activities are defined as follow. Immobility: the animal floats motionlessly or makes only those movements necessary to keep its head above water; Climb: the animal vigorously moves vertically while scratching the wall around the cylinder; Swim: the animal moves horizontally around in the cylinder more than necessary to keep its head above water; and Escape: sum of all vigorous active movements.
The ability of a test compound to decrease the duration or frequency of immobility, or changes in swimming, climbing and escape times, was measured using the FST procedure described above. […] The analysis of the results in the studies described was focused on the immobility time during 5-minute test session.
There were two swim sessions in each experiment. First, a pre-test swim session for 15 minutes was performed. Following 48 hours later was a test session of 5-minute duration. Upon completion of a swim session, each animal was placed under a heat lamp in a cage with soft bedding for approximately 15 minutes to prevent hypothermia.
Animals were pre-treated with a vehicle or test compound after completing the pre-test swim session, then 24 hours later and then shortly prior to the 5-minute test session; i.e., three injections were given to each animal between the two swim sessions that occurred on 3 consecutive days.
Data were analyzed using GraphPad Prism software (GraphPad Software, Inc. San Diego, Calif.). For the comparison of the effect of different doses for various drugs on immobility in the FST one-way ANOVA was used followed by Dunnett's multiple comparison test. […] The ED50 and Emax values were statistically compared using two-tail t-test.

SMILES	activity in the CMS model of depression ([1]; 12, 30 or 60 mg/kg i.p.)	effect on immobility vs control ([2]; 30 mg/kg p.o., large variability between individual rats)	Emax (immobility) in the FST ([2]; p.o.) [s]	doses at which effect on immobility was statistically significant vs vehicle ([2]; p.o.)	treatment time after which increases in sucrose intake in stressed animals reached statistical significance vs Week 0 ([1]; stressed animals, i.p. once daily)
NS(=O)(=O)NC[C@H]1COc2cc(Cl)ccc2O1 [Compound #8, (2S)-(−)-N-(6-Chloro-2,3-dihydro-benzo[1,4]dioxin-2-ylmethyl)-sulfamide]	inactive in the CMS model of depression	not significantly different from control	67.0 ± 11.6	12 mg/kg, 60 mg/kg, and 120 mg/kg	–
COc1ccc(C(CN(C)C)C2(O)CCCCC2)cc1 (stereo not drawn) [Venlafaxine, venlafaxine, reference compound]	–	–	–	30 mg/kg and 60 mg/kg	four weeks

From patent publication US8937096B2, “Use of benzo-fused heterocyle sulfamide derivatives for the treatment of mania and bipolar disorder” (priority 2005, dated 2015)
